{"source": "a melting point compilation (Tetko et al.; mined from patent text by program, amines drawn as free bases though some values may be those of a salt)", "data": [{"units": {"melting point": "°C"}, "values": [{"smiles": "Cc1c(CCCO)c2c(c(C)c1NC(=O)NCCO)C(c1ccc(C(C)C)cc1)CO2", "note": "(configuration not stated)", "melting point": "153 to 154"}, {"smiles": "O=C(O)Cc1ccc(CNC(=O)C2Cc3ccccc3N2S(=O)(=O)c2ccc(-c3ccc(F)cc3Cl)cc2)cc1", "note": "(configuration not stated)", "melting point": 119}, {"smiles": "CON=C(C(=O)OC)c1ccc(O)c([N+](=O)[O-])c1", "melting point": "93 to 95"}, {"smiles": "CS(=O)(=O)c1ccc(C2=C(c3ccc(-c4cccs4)cc3)C(=O)OC2)cc1", "melting point": "198 to 201"}, {"smiles": "CCN(CC)C(=O)c1ccc(I)cc1", "melting point": "68 to 70"}, {"smiles": "C=CCCC(=O)N1CCc2nnc(N(C)N)cc2C1", "melting point": "128 to 130"}, {"smiles": "Cc1c(C(=O)N(C)Cc2ccc3c(Br)c(OCC#N)ccc3c2)oc2ccccc12", "melting point": "35 to 38"}, {"smiles": "O=C1c2c(Cl)cccc2-n2cnc(C#Cc3ccccc3)c2[C@@H]2CCCN12", "melting point": "241 to 242"}, {"smiles": "Nc1ccc(Oc2ccc(C34CC5CC(C3)CC(c3ccc(Oc6ccc(N)c(O)c6)cc3)(C5)C4)cc2)cc1O", "melting point": "166 to 169"}, {"smiles": "NS(=O)(=O)c1cc2cc(P(=O)(O)O)c(=O)[nH]c2cc1C(F)(F)F", "melting point": "240 to 244"}, {"smiles": "COc1cccc2c1OC(CO)CC2", "note": "(configuration not stated)", "melting point": "57 to 58"}, {"smiles": "O=C(C1CCNCC1)N1CCN(c2cccc3[nH]ccc23)CC1", "melting point": "> 240"}, {"smiles": "CCOC(=O)C(Cc1cccc(OCC(F)(F)F)c1)C(=O)c1ccc(F)cc1", "note": "(configuration not stated)", "melting point": "48 to 49"}, {"smiles": "Nc1cc(Cl)c([N+](=O)[O-])cc1OC(=O)c1ccccc1", "melting point": "199 to 201"}, {"smiles": "Cc1nc2c(/C=C/c3ccccc3)cccn2c1C", "melting point": "240 to 255"}, {"smiles": "O=C(NCc1ccccc1)Nc1ccc(N2CC(c3ccccc3)CC2=O)cn1", "note": "(configuration not stated)", "melting point": "172 to 173"}, {"smiles": "Cc1ccc2c(Sc3cc(Cl)cc(Cl)c3)c(CCCC(N)=O)[nH]c2c1", "melting point": "163 to 164"}, {"smiles": "CCOC(=O)C1COc2cc(-c3ccccc3)ccc2O1", "note": "(configuration not stated)", "melting point": "103 to 105"}, {"smiles": "CCOC(=O)c1c2n(c3ccc(F)cc3c1=O)CCS2", "melting point": "225 to 226"}, {"smiles": "Cc1cc2cn[nH]c2c(C(=O)NC2(C3CC3)CC2)c1NC(=O)c1cc(Br)nn1-c1ncccc1Cl", "melting point": "170 to 173"}, {"smiles": "Nc1ccc(Oc2ncc(-c3ccccc3)c(C(F)(F)F)n2)cc1", "melting point": "123 to 126"}, {"smiles": "O=S(=O)(Nc1cccc(CCOCc2csc(-c3ccccc3Cl)n2)c1)C(F)(F)F", "melting point": "86 to 87"}, {"smiles": "Cc1ccc(S(=O)(=O)N(C)c2ccccc2[N+](=O)[O-])cc1", "melting point": 132}, {"smiles": "Cc1ncc(CSC(=O)c2cccc(C(=O)SCc3cnc(C)c4c3COC(C)(C)O4)c2)c2c1OC(C)(C)OC2", "melting point": "125 to 127"}, {"smiles": "C#CC(OC(=O)C1CC1)c1ccc2ccccc2c1", "note": "(configuration not stated)", "melting point": "65 to 66"}, {"smiles": "CCOC(=O)c1cc2cc(C=CC(=O)c3ccc(C)cc3)cc(C(C)CC)c2oc1=O", "note": "(configuration not stated)", "melting point": "155 to 156"}, {"smiles": "Nc1nc(Nc2cccnc2)sc1C(=O)c1ccc(OC(F)F)cc1", "melting point": 143}, {"smiles": "CCNC(=O)NCCCNn1c(COCC)nc2c(N)nc3c(c21)CCCC3", "melting point": "189 to 191"}, {"smiles": "CCOC(=O)Cc1ccc(CCNC(=O)c2cc(C)ccc2OC)cc1", "melting point": "83 to 85"}, {"smiles": "O=C1CCc2ccc(OCCCCN3CCN(c4cccc5c4CCCC5=O)CC3)nc2N1", "melting point": "169 to 170"}, {"smiles": "CC(C)C(OC(=O)NC(C)(Cc1ccccc1)C(=O)NC(CO)c1ccccc1)c1ccccc1", "note": "(configuration not stated)", "melting point": "124 to 130"}, {"smiles": "Cc1cc(O)ccc1-c1cc2ccccc2[nH]1", "melting point": 106}, {"smiles": "CCCCc1ncc(C(=O)OCC)c(NCc2ccc(-c3ccccc3-c3nnnn3C(c3ccccc3)(c3ccccc3)c3ccccc3)cc2)n1", "melting point": "116 to 118"}, {"smiles": "Ic1ccc(OC2CCCCO2)cc1", "note": "(configuration not stated)", "melting point": 66}, {"smiles": "CC(=O)NS(=O)(=O)c1ccc(-n2sc3ccccc3c2=O)cc1", "melting point": "254 to 255"}, {"smiles": "COc1cc(N)c2nc(C)cc(C)c2c1OC", "melting point": "108 to 110"}, {"smiles": "CN1CCN(c2cccc3c2C[C@H](NC(=O)c2ccccc2)CC3)CC1", "melting point": "195 to 196"}, {"smiles": "CCOC(=O)C(O)C1OC(n2cnc3c(N)ncnc32)C(O)C1O", "note": "(configuration not stated)", "melting point": "265 to 268"}, {"smiles": "Cc1ccc(-c2ccc(S(=O)(=O)Nc3onc(C)c3Br)cc2)cc1", "melting point": "153 to 156"}, {"smiles": "C[C@H](CC#CC(C)(C)O)[C@H]1CCC[C@H]2[C@@H](O)CCC[C@]12C", "melting point": "134 to 135"}, {"smiles": "CC(=O)OCn1cc(C#N)c(-c2ccccc2Cl)c1", "melting point": "91 to 95"}, {"smiles": "O=C(O)Cc1c(C(=O)c2ccc(OCc3ccccc3)cc2)[nH]c2cc(Cl)ccc12", "melting point": "220 to 222"}, {"smiles": "COC(=O)c1ccc(-c2ccc(I)c(O)c2)cc1", "melting point": 192}, {"smiles": "O=C1C2=C(NC(=O)C3(N2)OCCO3)c2ccccc21", "melting point": "296 to 301"}, {"smiles": "CCOC(=O)N[C@@H](C(=O)N1CCC[C@H]1C(=O)O)c1ccccc1", "melting point": "163 to 166"}, {"smiles": "CC(=O)Nc1cccc2c(=O)[nH]c3ccccc3c(=O)c12", "melting point": "270 to 272"}, {"smiles": "COc1cc(Nc2c(C#N)cnc3cc(Cl)c([N+](=O)[O-])cc23)c(C)cc1Cl", "melting point": "217 to 219"}, {"smiles": "Nc1nc2ccc3ccc(CNc4ccc(F)cc4)cc3c2c(=O)[nH]1", "melting point": "> 230"}, {"smiles": "COC(=O)Cc1ccc(-c2ccc(O)cc2)c(F)c1", "melting point": "115 to 118"}, {"smiles": "O=C(CN1C(=O)C2(COc3cc4c(cc32)CCO4)c2c(-c3cncnc3)cccc21)Nc1ccccc1F", "note": "(configuration not stated)", "melting point": "229 to 230"}, {"smiles": "CCC(=O)c1sc(SC)c2c1CCc1cnn(C)c1-2", "melting point": "119 to 120"}, {"smiles": "CS(=O)(=O)c1ccc(-c2cnn(CC3CC3)c(=O)c2-c2ccc(F)cc2)cc1", "melting point": "118 to 121"}, {"smiles": "COC(=O)C(Cc1ccc(OCc2nc3ccc(OC)cc3n2C)cc1)NS(C)(=O)=O", "note": "(configuration not stated)", "melting point": "168 to 171"}, {"smiles": "C#CCCCCCCCCC(=O)N[C@H]1CCCNC(=O)C1", "melting point": "73 to 75"}, {"smiles": "O=C(CCCCCCNC(=O)c1ccc(C(F)(C(=O)Nc2cccc3cccnc23)C(=O)Nc2cccc3cccnc23)cc1)NO", "melting point": "120 to 122"}, {"smiles": "CC(C)(C)c1ccc2c(c1)C(=O)c1ccc(C(=O)O)cc1S2(=O)=O", "melting point": "259 to 262"}, {"smiles": "CC(C)(C)C(=O)N(NC(=O)c1ccccc1)C(C)(C)C", "melting point": "217 to 220"}, {"smiles": "CCOC(=O)CSc1cc(Cl)nc(Nc2cccc(C)c2C)n1", "melting point": "114 to 116"}, {"smiles": "CCCCCC(C)Nc1nnc(-c2cccc(Oc3ccc(C(C)(C)C)cc3)c2)s1", "note": "(configuration not stated)", "melting point": "115 to 116"}, {"smiles": "CSC1NC(=O)N(C(C)C)C(=O)N1N=C(C)C", "note": "(configuration not stated)", "melting point": "110 to 112"}, {"smiles": "COc1cc(-c2ccccc2Cl)c(Cl)cc1C(=O)N1Cc2ccc(C(=O)N(C)Cc3cccnc3)n2Cc2ccccc21", "melting point": "196 to 198"}, {"smiles": "COc1cc(C=C(N)C(C)=O)ccc1OCC1CO1", "note": "(configuration not stated)", "melting point": "173 to 174"}, {"smiles": "CCC(=O)Nc1cccc(NC(=O)C2CC2)c1", "melting point": "185 to 186"}, {"smiles": "Cc1nc(Br)n(C)c1-c1nc(C2CC2)no1", "melting point": 81}, {"smiles": "CCOC(=O)Nc1ccc(CN2OCC(C)(C)C2=O)c(Cl)c1", "melting point": "162 to 164"}, {"smiles": "C#CCOc1cc(N2C(=O)C3CCCCN3C2C(=O)OCC)c(F)cc1Cl", "note": "(configuration not stated)", "melting point": "72 to 75"}, {"smiles": "O=C1N(CCN(c2ccccn2)c2ccccn2)c2ccccc2C12COc1cc3c(cc12)OCO3", "note": "(configuration not stated)", "melting point": "165 to 167"}, {"smiles": "COc1ccc(CNc2nc(SC)nc(OC)c2C(=O)O)cc1Cl", "melting point": "167 to 170"}, {"smiles": "CCc1nc(Cl)c(C=O)n1Cc1ccc2oc(-c3ccccc3NC(=O)OC(C)(C)C)c(Br)c2c1", "melting point": "65 to 66"}, {"smiles": "N#CN=C1NCCN1CC#CCNC(=O)C(O)(c1ccccc1)C1CCCCC1", "note": "(configuration not stated)", "melting point": "207 to 210"}, {"smiles": "COCCNC(=O)c1cccc(-c2cccc3cc(Cc4ccc(Cl)s4)sc23)c1", "melting point": "104 to 105"}, {"smiles": "COc1ccc(N2CCN(CCN3CC(C)(C)C3)C2=O)cc1Cl", "melting point": "93 to 95"}, {"smiles": "Cc1c(-c2ccccc2)oc2c(SCCCCCl)cccc2c1=O", "melting point": "81 to 84"}, {"smiles": "Cc1cccc(C(=O)O)c1NC(=S)Cc1ccccc1", "melting point": "148 to 150"}, {"smiles": "CCON=C(C(C)=NOCc1ccccc1C(=COC)C(=O)OC)c1ccc(OC(C)c2ccc(Cl)cc2)cc1", "note": "(configuration not stated)", "melting point": "107 to 109"}, {"smiles": "C#CCOC(C(=O)O)c1ccc(Cl)cc1", "note": "(configuration not stated)", "melting point": "69 to 70"}, {"smiles": "COc1ccc(S(=O)(=O)N(Cc2ccccc2)C(C(=O)NO)C(O)C(C)C)cc1", "note": "(configuration not stated)", "melting point": "81 to 82"}, {"smiles": "O=C(O)CCC(NC(=O)c1ccc(-c2ccccc2OC2OC(CO)C(O)C(O)C2O)cc1)C(=O)O", "note": "(configuration not stated)", "melting point": "118 to 121"}, {"smiles": "COc1ccc(-c2cc3nccnc3[nH]2)cc1OCC(=O)O", "melting point": "330 to 332"}, {"smiles": "Cc1cc(OCc2ccc(-c3ccc(OC(F)(F)F)cc3)nc2)ccc1OC(C)(C)C(=O)O", "melting point": "146 to 148"}, {"smiles": "O=C(O)C1=Cc2cc(-c3ccccc3)ccc2OC1C(F)(F)F", "note": "(configuration not stated)", "melting point": "197 to 198"}, {"smiles": "COc1cc(Br)c2c(c1)CCCN2", "melting point": "125 to 126"}, {"smiles": "CC1(C)CC(=O)C(SCc2ccc([N+](=O)[O-])cc2)=C(O)C1", "melting point": "140 to 142"}, {"smiles": "CCCCS(=O)(=O)N1C(SCc2ccc(OC)cc2)=NC(C)(c2cccc([N+](=O)[O-])c2)C(C)(C(=O)OCC)C1c1cccc([N+](=O)[O-])c1", "note": "(configuration not stated)", "melting point": "66 to 68"}, {"smiles": "COC(=O)c1cc(C2(c3ccc(F)c(-c4cncnc4)c3)N=C(N)N(C)C2=O)cn1CCF", "note": "(configuration not stated)", "melting point": "88 to 90"}, {"smiles": "CC(=O)OC1CSC(Sc2ccccc2C#N)C(OC(C)=O)C1OC(C)=O", "note": "(configuration not stated)", "melting point": 160}, {"smiles": "CCOC(=O)c1c(CN2CCSCC2)nc2cc(OC)c(OC)cc2c1-c1ccc(OC)c(OC)c1", "melting point": "148 to 149"}, {"smiles": "O=C(Nc1cccc2[nH]ccc12)c1ccccc1OCCN1CCCCC1", "melting point": 154}, {"smiles": "CN1CCN(c2cc(Sc3ccccc3)nc(-c3ccccc3)n2)CC1", "melting point": "125 to 128"}, {"smiles": "COC(=O)N1CCC(c2ccccc2)C(O)C1", "note": "(configuration not stated)", "melting point": "139 to 140"}, {"smiles": "CCOC(=O)C1=C(COCCn2c(C)nc(C)c2C)NC2=C(C(=O)OC2)C1c1ccccc1Cl", "note": "(configuration not stated)", "melting point": "215 to 217"}, {"smiles": "COc1ccccc1S(=O)(=O)N(C)c1cccc2cc(C3=NCC(CC(=O)N4CCC(O)CC4)S3)[nH]c12", "note": "(configuration not stated)", "melting point": "166 to 167"}, {"smiles": "CNC(Cc1ccccc1NC(=O)C(C)(C)C)c1ccccc1", "note": "(configuration not stated)", "melting point": "85 to 86"}, {"smiles": "CS(=O)(=O)Nc1ccc(C(=O)NC(=O)N2CCC(Oc3ccc(Cl)cc3)CC2)cc1", "melting point": 79}, {"smiles": "CCCN(Cc1ccc(-c2ccccc2-c2nnn[nH]2)cc1)c1ncccc1C(=O)O", "melting point": "202 to 204"}, {"smiles": "NC(=O)c1ccnc(Cl)n1", "melting point": "152 to 154"}, {"smiles": "O=S(=O)(/C=C/c1ccccc1)c1ncc(Cl)cn1", "melting point": 150}]}]}
